Data taken from paper PMC4774911, “Biochemical Screening of Five Protein Kinases from Plasmodium falciparum against 14,000 Cell-Active Compounds” (PLoS ONE, 2016).
Where “and” joins values, the source holds several entries; their conditions need not be identical. Equal entries are not always repeated.

Legend:
Assay in all cases: biochemical
MAP4K4 = MAP4K4 (Homo sapiens, UniProt O95819)
BMPR2 = molecular target: T1, BMPR2 (Homo sapiens, UniProt Q13873)
T1 sequence (Q13873 1-1038): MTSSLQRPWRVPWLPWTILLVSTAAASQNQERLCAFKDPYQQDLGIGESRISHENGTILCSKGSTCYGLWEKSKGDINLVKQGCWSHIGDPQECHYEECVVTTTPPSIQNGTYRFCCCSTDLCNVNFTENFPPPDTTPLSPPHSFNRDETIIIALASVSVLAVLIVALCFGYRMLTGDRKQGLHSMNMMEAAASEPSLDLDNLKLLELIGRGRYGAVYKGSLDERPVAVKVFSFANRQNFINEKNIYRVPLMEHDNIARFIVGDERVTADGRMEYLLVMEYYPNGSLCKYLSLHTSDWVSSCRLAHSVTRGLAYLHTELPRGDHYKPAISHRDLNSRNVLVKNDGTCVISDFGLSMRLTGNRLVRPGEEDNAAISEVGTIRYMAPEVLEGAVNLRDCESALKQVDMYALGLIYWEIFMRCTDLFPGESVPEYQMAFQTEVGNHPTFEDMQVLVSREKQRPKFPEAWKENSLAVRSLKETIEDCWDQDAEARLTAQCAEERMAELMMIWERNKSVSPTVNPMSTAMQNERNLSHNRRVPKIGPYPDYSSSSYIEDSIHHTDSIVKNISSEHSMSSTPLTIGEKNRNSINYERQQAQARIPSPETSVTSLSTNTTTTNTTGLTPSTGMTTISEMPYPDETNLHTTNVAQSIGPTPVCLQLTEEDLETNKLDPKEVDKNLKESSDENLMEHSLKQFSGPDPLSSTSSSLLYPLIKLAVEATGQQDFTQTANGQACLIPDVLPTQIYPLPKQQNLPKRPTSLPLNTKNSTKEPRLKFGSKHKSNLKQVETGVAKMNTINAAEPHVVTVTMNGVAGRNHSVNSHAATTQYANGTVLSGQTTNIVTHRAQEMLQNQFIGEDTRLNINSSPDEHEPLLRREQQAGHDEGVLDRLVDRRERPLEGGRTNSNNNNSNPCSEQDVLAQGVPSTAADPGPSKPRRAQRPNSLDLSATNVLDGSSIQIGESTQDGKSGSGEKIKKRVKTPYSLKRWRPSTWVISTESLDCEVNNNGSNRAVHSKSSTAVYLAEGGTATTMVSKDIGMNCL

ERN1 = ERN1 (Homo sapiens, UniProt O75460)
RIOK2 = RIOK2 (Homo sapiens, UniProt Q9BVS4)
RIOK2, sequence (Q9BVS4 whole entry): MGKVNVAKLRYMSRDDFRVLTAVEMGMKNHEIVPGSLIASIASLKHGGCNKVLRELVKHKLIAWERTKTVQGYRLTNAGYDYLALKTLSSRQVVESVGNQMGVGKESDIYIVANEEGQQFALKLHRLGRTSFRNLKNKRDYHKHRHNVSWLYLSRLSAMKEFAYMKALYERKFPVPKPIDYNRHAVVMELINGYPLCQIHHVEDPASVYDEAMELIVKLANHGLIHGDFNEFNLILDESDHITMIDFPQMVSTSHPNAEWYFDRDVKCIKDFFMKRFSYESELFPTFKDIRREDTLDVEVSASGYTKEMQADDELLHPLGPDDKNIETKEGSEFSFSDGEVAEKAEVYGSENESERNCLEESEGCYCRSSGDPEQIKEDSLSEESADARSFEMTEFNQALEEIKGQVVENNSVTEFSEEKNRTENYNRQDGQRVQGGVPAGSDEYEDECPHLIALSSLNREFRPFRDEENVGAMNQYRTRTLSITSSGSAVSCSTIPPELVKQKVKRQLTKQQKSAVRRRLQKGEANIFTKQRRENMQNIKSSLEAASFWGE

BMPR1A = BMPR1A (Homo sapiens, UniProt P36894)
BMPR1A, sequence (P36894 whole entry): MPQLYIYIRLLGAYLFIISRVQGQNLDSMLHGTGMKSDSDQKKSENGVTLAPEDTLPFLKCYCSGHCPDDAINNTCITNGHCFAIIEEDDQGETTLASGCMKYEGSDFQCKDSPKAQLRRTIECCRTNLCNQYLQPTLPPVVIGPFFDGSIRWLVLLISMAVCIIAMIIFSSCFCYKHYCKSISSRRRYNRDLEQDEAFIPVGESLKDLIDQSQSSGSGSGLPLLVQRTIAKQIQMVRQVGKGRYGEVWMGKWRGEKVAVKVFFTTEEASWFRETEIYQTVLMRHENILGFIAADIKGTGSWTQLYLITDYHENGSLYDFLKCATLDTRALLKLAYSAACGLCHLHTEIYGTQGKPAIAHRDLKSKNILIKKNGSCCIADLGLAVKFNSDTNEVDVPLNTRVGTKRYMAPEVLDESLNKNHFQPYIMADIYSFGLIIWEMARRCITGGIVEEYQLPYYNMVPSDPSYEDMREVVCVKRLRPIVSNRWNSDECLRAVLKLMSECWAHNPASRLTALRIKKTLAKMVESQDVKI

TAOK2 = molecular target: T2, TAOK2 (Homo sapiens, UniProt Q9UL54)
T2 sequence (Q9UL54 1-1235): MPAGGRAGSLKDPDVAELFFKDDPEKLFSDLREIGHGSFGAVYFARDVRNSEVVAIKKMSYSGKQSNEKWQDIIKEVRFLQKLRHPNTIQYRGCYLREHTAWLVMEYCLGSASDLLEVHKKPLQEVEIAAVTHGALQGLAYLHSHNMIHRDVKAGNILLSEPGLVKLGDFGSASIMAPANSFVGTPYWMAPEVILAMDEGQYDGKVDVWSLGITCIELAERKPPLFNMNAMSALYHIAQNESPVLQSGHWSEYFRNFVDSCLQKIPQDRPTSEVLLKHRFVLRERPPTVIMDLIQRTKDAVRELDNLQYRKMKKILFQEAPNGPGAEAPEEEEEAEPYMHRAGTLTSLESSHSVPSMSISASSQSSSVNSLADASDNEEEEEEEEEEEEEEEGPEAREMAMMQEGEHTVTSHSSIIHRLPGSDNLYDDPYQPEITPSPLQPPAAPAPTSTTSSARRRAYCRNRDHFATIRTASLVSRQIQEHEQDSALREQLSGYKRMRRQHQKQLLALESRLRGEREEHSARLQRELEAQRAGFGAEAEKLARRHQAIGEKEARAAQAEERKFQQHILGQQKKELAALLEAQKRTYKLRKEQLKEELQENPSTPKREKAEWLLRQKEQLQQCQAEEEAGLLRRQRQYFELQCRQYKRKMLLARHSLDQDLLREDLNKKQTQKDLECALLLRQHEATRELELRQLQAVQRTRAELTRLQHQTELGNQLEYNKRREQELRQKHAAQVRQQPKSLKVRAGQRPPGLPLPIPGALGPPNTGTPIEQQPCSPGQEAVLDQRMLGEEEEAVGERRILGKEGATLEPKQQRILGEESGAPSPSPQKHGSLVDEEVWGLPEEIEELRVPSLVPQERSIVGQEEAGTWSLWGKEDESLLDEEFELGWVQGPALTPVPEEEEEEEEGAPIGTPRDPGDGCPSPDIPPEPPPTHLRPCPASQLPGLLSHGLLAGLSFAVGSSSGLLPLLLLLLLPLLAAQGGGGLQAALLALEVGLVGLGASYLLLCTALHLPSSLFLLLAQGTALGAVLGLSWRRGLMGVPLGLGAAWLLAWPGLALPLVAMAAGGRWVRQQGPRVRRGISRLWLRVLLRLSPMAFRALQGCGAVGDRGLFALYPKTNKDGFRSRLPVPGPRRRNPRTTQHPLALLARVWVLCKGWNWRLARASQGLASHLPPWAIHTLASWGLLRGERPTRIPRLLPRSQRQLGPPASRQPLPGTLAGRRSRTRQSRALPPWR

DSTYK = DSTYK (Homo sapiens, UniProt Q6XUX3)
DSTYK, sequence (Q6XUX3 whole entry): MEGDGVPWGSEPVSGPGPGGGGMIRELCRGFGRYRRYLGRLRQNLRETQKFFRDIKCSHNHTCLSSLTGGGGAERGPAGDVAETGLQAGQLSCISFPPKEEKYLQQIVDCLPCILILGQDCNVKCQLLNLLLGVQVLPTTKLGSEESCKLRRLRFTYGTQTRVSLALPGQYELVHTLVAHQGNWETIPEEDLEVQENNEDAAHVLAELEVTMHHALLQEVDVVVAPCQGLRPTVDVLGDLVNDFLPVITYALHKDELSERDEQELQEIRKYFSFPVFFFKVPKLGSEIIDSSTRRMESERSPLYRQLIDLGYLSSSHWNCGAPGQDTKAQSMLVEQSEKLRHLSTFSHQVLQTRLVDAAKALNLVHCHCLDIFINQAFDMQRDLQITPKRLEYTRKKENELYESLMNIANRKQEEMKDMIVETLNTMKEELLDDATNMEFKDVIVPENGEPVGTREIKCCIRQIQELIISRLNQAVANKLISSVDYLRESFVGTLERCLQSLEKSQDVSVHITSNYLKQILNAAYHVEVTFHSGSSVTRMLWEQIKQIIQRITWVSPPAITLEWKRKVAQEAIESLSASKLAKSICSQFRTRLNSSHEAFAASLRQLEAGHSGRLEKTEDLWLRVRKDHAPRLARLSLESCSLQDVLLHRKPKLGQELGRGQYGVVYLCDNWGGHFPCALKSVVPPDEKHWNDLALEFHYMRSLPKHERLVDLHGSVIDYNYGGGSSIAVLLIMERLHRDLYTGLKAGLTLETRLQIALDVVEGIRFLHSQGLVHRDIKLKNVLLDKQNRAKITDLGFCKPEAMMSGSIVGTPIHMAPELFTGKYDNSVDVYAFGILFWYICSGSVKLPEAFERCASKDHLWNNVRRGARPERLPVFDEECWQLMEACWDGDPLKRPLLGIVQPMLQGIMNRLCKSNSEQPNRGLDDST

RPS6KA3 = RPS6KA3 (Homo sapiens, UniProt P51812)
RPS6KA3, sequence (P51812 whole entry): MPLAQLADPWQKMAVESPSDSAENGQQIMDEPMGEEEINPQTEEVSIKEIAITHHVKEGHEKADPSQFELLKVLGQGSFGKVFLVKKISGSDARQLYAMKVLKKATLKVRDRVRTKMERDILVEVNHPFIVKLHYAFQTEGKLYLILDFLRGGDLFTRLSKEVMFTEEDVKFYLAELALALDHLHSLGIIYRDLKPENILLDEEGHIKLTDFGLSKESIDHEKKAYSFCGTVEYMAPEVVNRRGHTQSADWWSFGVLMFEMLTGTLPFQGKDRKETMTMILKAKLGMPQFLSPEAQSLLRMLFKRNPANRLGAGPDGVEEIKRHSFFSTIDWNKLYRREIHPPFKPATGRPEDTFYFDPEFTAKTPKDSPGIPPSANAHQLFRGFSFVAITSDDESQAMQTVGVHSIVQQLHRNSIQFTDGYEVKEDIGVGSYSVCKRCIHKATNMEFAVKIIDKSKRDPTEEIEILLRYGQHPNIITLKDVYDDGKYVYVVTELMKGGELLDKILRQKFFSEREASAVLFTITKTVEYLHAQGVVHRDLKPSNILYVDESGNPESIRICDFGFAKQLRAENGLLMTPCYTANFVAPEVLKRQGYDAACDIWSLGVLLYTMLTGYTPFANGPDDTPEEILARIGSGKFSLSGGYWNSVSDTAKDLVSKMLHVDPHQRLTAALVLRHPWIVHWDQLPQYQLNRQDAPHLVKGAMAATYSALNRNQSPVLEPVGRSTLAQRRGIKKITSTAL

MAPK7 = MAPK7 (Homo sapiens, UniProt Q13164)
MAPK7, sequence (Q13164 whole entry): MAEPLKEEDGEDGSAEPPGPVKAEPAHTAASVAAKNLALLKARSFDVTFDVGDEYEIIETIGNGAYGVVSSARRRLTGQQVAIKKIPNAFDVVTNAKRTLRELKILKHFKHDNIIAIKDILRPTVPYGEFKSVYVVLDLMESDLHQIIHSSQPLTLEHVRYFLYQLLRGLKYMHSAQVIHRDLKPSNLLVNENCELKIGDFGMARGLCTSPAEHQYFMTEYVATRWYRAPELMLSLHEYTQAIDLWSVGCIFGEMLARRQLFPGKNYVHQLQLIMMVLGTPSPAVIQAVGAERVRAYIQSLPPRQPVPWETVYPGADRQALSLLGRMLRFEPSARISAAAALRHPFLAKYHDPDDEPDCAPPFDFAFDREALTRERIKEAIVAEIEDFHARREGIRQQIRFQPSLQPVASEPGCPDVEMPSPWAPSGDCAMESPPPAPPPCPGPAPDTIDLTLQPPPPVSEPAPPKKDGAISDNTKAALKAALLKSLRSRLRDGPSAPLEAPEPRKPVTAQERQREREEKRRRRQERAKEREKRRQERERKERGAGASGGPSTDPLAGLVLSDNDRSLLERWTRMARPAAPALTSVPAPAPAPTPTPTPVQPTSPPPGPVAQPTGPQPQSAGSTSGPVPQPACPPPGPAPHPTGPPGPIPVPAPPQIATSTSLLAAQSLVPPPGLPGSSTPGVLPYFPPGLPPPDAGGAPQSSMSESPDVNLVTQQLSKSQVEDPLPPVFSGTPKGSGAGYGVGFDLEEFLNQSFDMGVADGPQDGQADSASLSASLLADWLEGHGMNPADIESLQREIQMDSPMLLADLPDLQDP

MAST3 = MAST3 (Homo sapiens, UniProt O60307)

MAP4K4, sequence (O95819 whole entry): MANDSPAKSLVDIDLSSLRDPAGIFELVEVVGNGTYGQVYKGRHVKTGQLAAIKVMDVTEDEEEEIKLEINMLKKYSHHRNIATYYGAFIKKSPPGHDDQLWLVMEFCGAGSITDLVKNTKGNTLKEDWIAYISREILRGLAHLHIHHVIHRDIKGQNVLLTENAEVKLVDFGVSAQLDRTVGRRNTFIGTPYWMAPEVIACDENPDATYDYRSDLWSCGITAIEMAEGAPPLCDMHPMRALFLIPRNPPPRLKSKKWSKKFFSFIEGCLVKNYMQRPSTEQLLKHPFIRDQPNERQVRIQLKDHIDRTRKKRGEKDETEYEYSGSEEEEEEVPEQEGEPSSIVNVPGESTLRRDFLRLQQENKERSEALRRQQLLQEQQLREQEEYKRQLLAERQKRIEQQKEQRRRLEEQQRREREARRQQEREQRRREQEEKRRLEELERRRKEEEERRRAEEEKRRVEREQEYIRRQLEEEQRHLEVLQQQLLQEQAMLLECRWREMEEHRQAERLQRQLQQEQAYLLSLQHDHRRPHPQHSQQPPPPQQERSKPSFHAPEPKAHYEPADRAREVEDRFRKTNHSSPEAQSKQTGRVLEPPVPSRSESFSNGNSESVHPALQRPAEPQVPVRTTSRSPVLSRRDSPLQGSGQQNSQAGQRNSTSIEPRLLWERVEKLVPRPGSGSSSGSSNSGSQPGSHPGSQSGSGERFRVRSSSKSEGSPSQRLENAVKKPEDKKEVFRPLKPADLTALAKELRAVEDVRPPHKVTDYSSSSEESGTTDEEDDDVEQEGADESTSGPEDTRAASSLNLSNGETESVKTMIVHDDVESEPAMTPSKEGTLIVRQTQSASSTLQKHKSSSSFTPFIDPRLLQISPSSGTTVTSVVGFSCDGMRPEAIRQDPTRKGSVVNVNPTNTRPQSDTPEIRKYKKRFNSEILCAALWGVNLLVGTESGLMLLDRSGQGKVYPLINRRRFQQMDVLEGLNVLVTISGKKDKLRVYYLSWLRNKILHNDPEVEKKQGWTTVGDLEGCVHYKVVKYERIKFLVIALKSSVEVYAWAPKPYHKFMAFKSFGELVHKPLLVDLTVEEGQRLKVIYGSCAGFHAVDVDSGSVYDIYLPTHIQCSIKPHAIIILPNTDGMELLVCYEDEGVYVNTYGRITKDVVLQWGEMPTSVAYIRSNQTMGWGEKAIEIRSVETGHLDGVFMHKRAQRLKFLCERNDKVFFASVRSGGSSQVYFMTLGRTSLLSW

| Structure (SMILES) | IC50 (MAP4K4) | IC50 (BMPR2) | IC50 (ERN1) [nM] | IC50 (RIOK2) [nM] | IC50 (BMPR1A) [nM] | IC50 (TAOK2) [nM] | IC50 (DSTYK) [nM] | IC50 (RPS6KA3) | IC50 (MAPK7) | IC50 (MAST3) [nM] |
| --- | --- | --- | --- | --- | --- | --- | --- | --- | --- | --- |
| CN(C)CC(O)COc1ccc(Nc2ncc([N+](=O)[O-])c(Nc3ccccc3O)n2)cc1.O=C(O)C(F)(F)F (centres unmarked) [TCMDC-141399] | 1800 nM and 1200 nM | > 20000 nM | > 20000 | > 20000 | > 20000 | > 20000 | > 20000 |  |  |  |
| Cl.NCC1(c2nc(-c3ccc(Cl)c(O)c3)c(-c3ccncc3)[nH]2)CCCCC1 [TCMDC-141154] | 1500 nM and 950 nM |  |  | > 20000 | > 20000 |  | > 20000 | > 20000 nM | 1100 nM and 1900 nM | > 20000 |
| CN1CCN(c2ccc(Nc3ncc(C#N)c(Nc4ccccc4C(N)=O)n3)cc2)CC1.Cl [TCMDC-134116] |  | 4900 nM and 6700 nM | 170 |  |  | 400 |  | 89 nM and 120 nM | 280 nM and 380 nM | 160 |
